Measurements published in the NIST ThermoML archive (doi:10.1016/j.tca.2009.03.004).
± gives the expanded uncertainty stated by the source.

How the values were obtained:
[1] = Molar enthalpy of transition or fusion; details: DSC
[2] = DTA

Row | SMILES | Molar enthalpy of transition or fusion ([1]; Crystal) | Molar enthalpy of transition or fusion ([1]; Nematic liquid crystal) | Triple point temperature ([2]; Crystal) | Triple point temperature ([2]; Nematic liquid crystal)
1 | CCCCCCCCOc1ccc(C=Nc2ccc(OCC)cc2)cc1 [4-ethoxy-N-[[4-(octyloxy)phenyl]methylene]benzenamine] | 9.66 ± 0.263 kcal/mol | 0.268 ± 0.0311 kcal/mol | 373.95 ± 0.5 K | 395.55 ± 0.5 K
2 | CCCCCCCCOc1ccc(C=Nc2ccc(OCCCC)cc2)cc1 [benzenamine, 4-butoxy-N-[[4-(octyloxy)phenyl]methylene]-] | 10.6 ± 0.287 kcal/mol | 0.43 ± 0.0359 kcal/mol | 380.75 ± 0.5 K | 389.55 ± 0.5 K
